Results from patent US10265310B2, “6-membered cyclic amines or lactames substituted with urea and phenyl” (GRÜNENTHAL GMBH, priority 2016, dated 2019).

What was measured:
FPR1 = FPR1 (Homo sapiens (Human), UniProt P21462); assay: Agonistic activity (calcium FLIPR) in hFPR1-Gα15-CHO cells; format: cell-based; settings: FLIPR Calcium 5 dye fluorescence, agonistic response
Procedure: (§1) Cells (hFPR1-Gα15-CHO or hFPR2-Aq-CHO) are suspended in 10 mL of respective complete medium (F12(1×) HAM media; 10% HI-FBS; 0.1 mg/ml Hygromycin B and 0.2 mg/ml Zeocin [for hFPR1 only]; 0.4 mg/mL Geneticin and 0.25 mg/ml Zeocin [for hFPR2-Aq only]) and viability is checked using Trypan Blue exclusion. After washing, the cells are plated at 10,000 cells per well in 40 μL complete medium in a 384-well sterile clear bottom black plate and incubated in a 5% CO2 incubator at 37° C. for 18 hours. Plating media is removed from each well by decanting and gentle tapping before 30 μL of 0.5× Calcium 5 dye solution (0.5×FLIPR Calcium 5 dye (Molecular devices, R8186)); HBSS; 20 mM HEPES; 2.5 mM Probenecid; 0.025% Pluronic F-127; pH adjusted to 7.4) is added to each well and the plate is then incubated at 37° C. for 30 minutes. For the assay the plate is equilibrated at room temperature for 10 minutes before placing it in the FLIPR. Compounds are dissolved in DMSO and serially diluted over an 11 point half log (3.16 fold) dilution (2 mM to 20 nM). Compounds are then diluted 1:50 in assay buffer (HBSS; 20 mM HEPES; 2.5 mM Probenecid; 0.05% gelatin; 0.1% BSA; pH adjusted to 7.4) just before performing the assay. Compounds are finally added to the respective wells of the cell plate (final assay concentration 10 μM to 100 pM) using the FLIPR (e.g. FLIPR-Tetra, Molecular Devices) and fluorescence readings are captured for 5 minutes. The increase in fluorescence from the basal reading in the presence of the compounds is compared with that of the control wells (wells having no compound) to calculate the activity of the compounds. The EC50 values of the compounds can be determined using e.g. Graph pad Prism software.
(§2) Assay Method for Measuring Agonistic Activity of Compounds in hFPR1-Gα15-CHO and hFPR2-Aq-CHO Cell
(§3) Cryo-vial containing 6×10^6 cells (hFPR1-Gα15-CHO or hFPR2-Aq-CHO) was thawed in a 37° C. water bath. Cells were suspended in 10 ml of respective complete growth media (F12(1×) HAM media (Gibco; Cat#11765); 10% HI-FBS (Gibco; Cat#10082); 0.1 mg/ml Hygromycin B (Invitrogen; Cat#10687-010) [for hFPR1 only]; 0.2 mg/ml Zeocin (Invitrogen; Cat#R25001) [for hFPR1 only]; 0.4 mg/ml Geneticin (Gibco; Cat#10131) [for hFPR2-Aq only]; 0.25 mg/ml Zeocin (Invitrogen; Cat#R25001) [for hFPR2-Aq only]) in a 15 ml centrifuge tube. The cell viability was checked with the help of Trypan Blue dye. Upon washing the cells, those were plated in a 384-well sterile clear bottom black plate (Greiner Bioone Cat#781091) so that, each well contained 10,000 cells in 40 μl complete growth media. The plate was incubated in a 5% CO2 incubator at 37° C. for 18 hours.
(§4) Before assay on the next day, the cell plating media was removed from each well of the plate by decanting and gentle tapping. 30 μl, 0.11 of 0.5× Calcium 5 dye solution (0.5×FLIPR Calcium 5 dye (Molecular devices Cat# R8186); HBSS (Invitrogen; Cat#14025); 20 mM HEPES (Sigma; Cat#H0887); 2.5 mM Probenecid (Sigma; Cat#P8761); 0.025% Pluronic F-127 (Sigma; Cat#P2443); pH adjusted to 7.4) was added to each well. The plate was then incubated at 37° C. for 30 minutes. Following which the plate was equilibrated at room temperature for 10 minutes before placing it in a 384 well FLIPR for assay. Compounds were dissolved in DMSO and serially diluted following 11 point half log (3.16 fold) dilution with a starting concentration of 2 mM (Final assay concentration 10 μM). Aliquots of above mentioned each dilution was mixed with assay buffer (HBSS (Invitrogen; Cat#14025); 20 mM HEPES (Sigma; Cat#H0887); 2.5 mM Probenecid (Sigma; Cat#P8761); 0.05% gelatin (Sigma; Cat#G1890); 0.1% BSA (Sigma; Cat#A3059); pH adjusted to 7.4) just before performing the assay. Compounds were added to the respective wells of the assay ready cell plate with the help of the FLIPR (FLIPR Tetra) and fluorescence readings were captured for 5 minutes to measure any agonistic response of the compounds. […]

FPR2 = FPR2 (Homo sapiens (Human), UniProt P25090); assay: Agonistic activity (calcium FLIPR) in hFPR2-Aq-CHO cells; format: cell-based; settings: FLIPR Calcium 5 dye fluorescence, agonistic response
Procedure: as §1, §2, §3, §4

Sequence of FPR1 (P21462 whole entry): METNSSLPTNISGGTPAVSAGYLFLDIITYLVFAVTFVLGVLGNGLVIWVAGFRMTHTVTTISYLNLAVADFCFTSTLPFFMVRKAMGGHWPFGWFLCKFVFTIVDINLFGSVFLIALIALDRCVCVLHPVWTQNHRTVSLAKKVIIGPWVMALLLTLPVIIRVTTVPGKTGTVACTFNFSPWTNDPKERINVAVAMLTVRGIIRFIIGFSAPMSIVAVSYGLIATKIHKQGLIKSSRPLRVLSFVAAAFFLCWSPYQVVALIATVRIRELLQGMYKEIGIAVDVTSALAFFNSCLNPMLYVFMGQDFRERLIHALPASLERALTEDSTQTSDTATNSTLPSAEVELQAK
Sequence of FPR2 (P25090 whole entry): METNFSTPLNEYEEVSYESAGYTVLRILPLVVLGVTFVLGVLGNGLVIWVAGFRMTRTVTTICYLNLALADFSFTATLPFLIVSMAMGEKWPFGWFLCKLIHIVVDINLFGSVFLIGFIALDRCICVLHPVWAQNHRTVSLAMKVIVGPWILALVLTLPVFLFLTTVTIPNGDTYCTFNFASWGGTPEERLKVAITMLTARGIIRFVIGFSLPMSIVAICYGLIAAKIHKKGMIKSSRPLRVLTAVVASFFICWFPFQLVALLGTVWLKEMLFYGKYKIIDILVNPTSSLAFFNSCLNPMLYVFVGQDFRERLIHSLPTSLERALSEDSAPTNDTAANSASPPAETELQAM

| EC50 (FPR1) [nM] | EC50 (FPR2) [nM] | SMILES |
| --- | --- | --- |
| 1 to 1000 | 1 to 1000 | COc1ccc([C@@H]2CCN(C(C)=O)C[C@H]2NC(=O)Nc2ccc(C(F)(F)F)nc2)cc1 (racemic) [Example 27, rac-trans-1-(1-acetyl-4-(4-methoxyphenyl)piperidin-3-yl)-3-(6-(trifluoromethyl)pyridin-3-yl)urea] |
| 1 to 1000 | 1 to 1000 | COc1ccc(C2CCN(C(C)=O)C[C@H]2NC(=O)Nc2ccc(C)nc2)cc1 (mixture of isomers) [Example 28, rac-trans-1-(1-acetyl-4-(4-methoxyphenyl)piperidin-3-yl)-3-(6-methylpyridin-3-yl)urea] |
| 1 to 1000 | < 1 | COc1cc(F)c([C@@H]2CC(=O)N(CC3CC3)C[C@H]2NC(=O)Nc2ccc(Cl)cc2)c(F)c1 (racemic) [Example 29, rac-trans-1-(4-chlorophenyl)-3-(1-(cyclopropylmethyl)-4-(2,6-difluoro-4-methoxyphenyl)-6-oxopiperidin-3-yl)urea] |
| < 1 | < 1 | COc1ccc([C@@H]2CCN(C(=O)CCO)C[C@H]2NC(=O)Nc2ccc(Cl)cc2)cc1 (racemic) [Example 30, rac-trans-1-(4-chlorophenyl)-3-(1-(3-hydroxypropanoyl)-4-(4-methoxyphenyl)piperidin-3-yl)urea] |
| 1 to 1000 | < 1 | COc1cc(F)c([C@@H]2CC(=O)N(CCO)C[C@H]2NC(=O)Nc2ccc(Cl)cc2)c(F)c1 (racemic) [Example 31, rac-trans-1-(4-chlorophenyl)-3-(4-(2,6-difluoro-4-methoxyphenyl)-1-(2-hydroxyethyl)-6-oxopiperidin-3-yl)urea] |
| 1 to 1000 | < 1 | COc1ccc([C@@H]2CC(=O)N(CCO)C[C@H]2NC(=O)Nc2ccc(Cl)cc2)cc1 (racemic) [Example 32, rac-trans-1-(4-chlorophenyl)-3-(1-(2-hydroxyethyl)-4-(4-methoxyphenyl)-6-oxopiperidin-3-yl)urea] |
| 1 to 1000 | 1 to 1000 | COc1cc(F)c([C@@H]2CC(=O)NC[C@H]2NC(=O)Nc2ccc(Cl)s2)c(F)c1 (racemic) [Example 51, rac-trans-1-(5-chlorothiophen-2-yl)-3-(4-(2,6-difluoro-4-methoxyphenyl)-6-oxopiperidin-3-yl)urea] |
| 1 to 1000 | < 1 | COc1cc(F)c([C@@H]2CC(=O)NC[C@H]2NC(=O)Nc2csc(Cl)c2)c(F)c1 (racemic) [Example 52, rac-trans-1-(5-Chloro-thiophen-3-yl)-3-[4-(2,6-difluoro-4-methoxy-phenyl)-6-oxo-piperidin-3-yl]-urea] |
| 1 to 1000 | 1 to 1000 | COc1cc(F)c([C@@H]2CC(=O)NC[C@H]2NC(=O)Nc2cc3ccccc3s2)c(F)c1 (racemic) [Example 53, rac-trans-1-(Benzo[b]thiophen-2-yl)-3-[4-(2,6-difluoro-4-methoxy-phenyl)-6-oxo-piperidin-3-yl]-urea] |
| 1 to 1000 | < 1 | COc1cc(F)c([C@@H]2CC(=O)NC[C@H]2NC(=O)Nc2ccc(Oc3ccccc3)cc2)c(F)c1 (racemic) [Example 54, rac-trans-1-[4-(2,6-Difluoro-4-methoxy-phenyl)-6-oxo-piperidin-3-yl]-3-(4-phenoxy-phenyl)-urea] |
| 1 to 1000 | 1 to 1000 | COc1cc(F)c([C@@H]2CC(=O)NC[C@H]2NC(=O)Nc2cc(C)ns2)c(F)c1 (racemic) [Example 55, rac-trans-1-[4-(2,6-Difluoro-4-methoxy-phenyl)-6-oxo-piperidin-3-yl]-3-(3-methyl-isothiazol-5-yl)-urea] |
| 1 to 1000 | 1 to 1000 | COc1cc(F)c([C@@H]2CC(=O)NC[C@H]2NC(=O)Nc2ncc(Cl)s2)c(F)c1 (racemic) [Example 56, rac-trans-1-(5-Chloro-thiazol-2-yl)-3-[4-(2,6-difluoro-4-methoxy-phenyl)-6-oxo-piperidin-3-yl]-urea] |
| 1 to 1000 | < 1 | COc1cc(F)c([C@@H]2CC(=O)NC[C@H]2NC(=O)Nc2ccc(Cl)c(O)c2)c(F)c1 (racemic) [Example 57, rac-trans-1-(4-Chloro-3-hydroxy-phenyl)-3-[4-(2,6-difluoro-4-methoxy-phenyl)-6-oxo-piperidin-3-yl]-urea] |
| 1 to 1000 | 1 to 1000 | COc1cc(F)c([C@@H]2CC(=O)NC[C@H]2NC(=O)Nc2ccc(Cl)c(F)c2)c(F)c1 (racemic) [Example 58, rac-trans-1-(4-Chloro-3-fluoro-phenyl)-3-[4-(2,6-difluoro-4-methoxy-phenyl)-6-oxo-piperidin-3-yl]-urea] |
| 1 to 1000 | 1 to 1000 | CCc1cc(F)c([C@@H]2CC(=O)NC[C@H]2NC(=O)Nc2ccc(Cl)cc2)c(F)c1 (racemic) [Example 69, rac-trans-1-(4-chlorophenyl)-3-(4-(4-ethyl-2,6-difluorophenyl)-6-oxopiperidin-3-yl)urea] |
| 1 to 1000 | 1 to 1000 | O=C1C[C@@H](c2c(F)cc(OC(F)F)cc2F)[C@H](NC(=O)Nc2ccc(Cl)cc2)CN1 (racemic) [Example 70, rac-trans-1-(4-chlorophenyl)-3-(4-(4-(difluoromethoxy)-2,6-difluorophenyl)-6-oxopiperidin-3-yl)urea] |
| 1 to 1000 | 1 to 1000 | CCc1ccc([C@@H]2CC(=O)NC[C@H]2NC(=O)Nc2ccc(Cl)cc2)cc1 (racemic) [Example 73, rac-trans-1-(4-chlorophenyl)-3-(4-(4-ethylphenyl)-6-oxopiperidin-3-yl)urea] |
| 1 to 1000 | 1 to 1000 | O=C1C[C@@H](c2ccc(OC(F)F)cc2)[C@H](NC(=O)Nc2ccc(Cl)cc2)CN1 (racemic) [Example 74, rac-trans-1-(4-chlorophenyl)-3-(4-(4-(difluoromethoxy)phenyl)-6-oxopiperidin-3-yl)urea] |
| 1 to 1000 | 1 to 1000 | CS(=O)(=O)c1ccc([C@@H]2CC(=O)NC[C@H]2NC(=O)Nc2ccc(Cl)cc2)cc1 (racemic) [Example 75, rac-trans-1-(4-chlorophenyl)-3-(4-(4-(methylsulfonyl)phenyl)-6-oxopiperidin-3-yl)urea] |
| 1 to 1000 | 1 to 1000 | COc1ccc(C2C(NC(=O)Nc3ccc(Cl)cc3)CCCN2C)cc1 (single isomer, unassigned; dia1) [Example 89, dia1-1-(4-chlorophenyl)-3-(2-(4-methoxyphenyl)-1-methylpiperidin-3-yl)urea] |
| 1 to 1000 | 1 to 1000 | COc1cc(F)c(C2C(NC(=O)Nc3ccc(Cl)cc3)CCCN2C)c(F)c1 (single isomer, unassigned; dia2) [Example 88, dia2-1-(4-chlorophenyl)-3-(2-(2,6-difluoro-4-methoxyphenyl)-1-methylpiperidin-3-yl)urea] |
| 1 to 1000 | 1 to 1000 | COc1ccc(C2C(NC(=O)Nc3ccc(Cl)cc3)CCCN2C)cc1 (single isomer, unassigned; dia2) [Example 90, dia2-1-(4-chlorophenyl)-3-(2-(4-methoxyphenyl)-1-methylpiperidin-3-yl)urea] |
